Measured values: PubChem BioAssay (NCI)
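48-hour exposure; five concentrations; linearly interpolated endpoints. At the GI50, growth is halved. Definition used: TGI = concentration required for complete inhibition of growth.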

What was measured:
Experiment in all cases: NCI tumour cell line growth inhibition, 48 h
[1] = tested on: BT-549 breast
[2] = tested on: SW-620 colon
[3] = tested on: MDA-MB-435
[4] = tested on: NCI/ADR-RES ovarian
[5] = tested on: MDA-MB-231 breast
[6] = tested on: SNB-75 CNS
[7] = tested on: RPMI-8226 leukemia
[8] = tested on: A498 renal
[9] = tested on: M14 melanoma
[10] = tested on: OVCAR-4 ovarian

`COc1cc(/C=C/C(=O)N2CCC=CC2=O)cc(OC)c1OC` gave a GI50 [1] of 2.45 µM, a TGI [1] of 7.84 µM and a GI50 [2] of 2.51 µM. For the same molecule, the TGI [2] was 6.61 µM, the GI50 [3] was 2.21 µM and the TGI [3] was 6.05 µM. For the same molecule, the GI50 [4] was 3.41 µM, the TGI [4] was 47.9 µM and the GI50 [5] was 3.38 µM. For the same molecule, the TGI [5] was 10.8 µM, the GI50 [6] was 36.6 µM and the TGI [6] was over 100 µM. For the same molecule, the GI50 [7] was 1.5 µM, the TGI [7] was 4.81 µM and the GI50 [8] was 14.9 µM. For the same molecule, the TGI [8] was 29.4 µM, the GI50 [9] was 1.92 µM and the TGI [9] was 4.41 µM. For the same molecule, the GI50 [10] was 3.11 µM and the TGI [10] was 17.4 µM.
Molecule `O=C(/C=C/C(Cl)(Cl)Cl)Nc1ccc(Cl)cc1` has a TGI [1] of 31.1 µM, a TGI [2] of 14 µM and a TGI [3] of 12.4 µM. It also gave a TGI [4] of 14 µM, a TGI [5] of 6.15 µM and a TGI [6] of 11.1 µM. For the same molecule, the TGI [7] was 3.85 µM, the TGI [8] was 28.8 µM and the TGI [9] was 11.7 µM. For the same molecule, the TGI [10] was 4.02 µM.
Work on `NC(=O)CC1(O)C=C(Br)C(=O)C(Br)=C1` yielded a GI50 [1] of 1.91 µM, a TGI [1] of 6.97 µM and a GI50 [2] of 1.77 µM. It also gave a TGI [2] of 3.47 µM, a GI50 [3] of 2.04 µM and a TGI [3] of 7.31 µM. It also gave a GI50 [4] of 10.1 µM, a TGI [4] of over 94.4 µM and a GI50 [5] of 6.85 µM. It also gave a TGI [5] of 20.2 µM, a GI50 [6] of 12.8 µM and a TGI [6] of 26.2 µM. For the same molecule, the GI50 [7] was 2.25 µM, the TGI [7] was 6.82 µM and the GI50 [8] was 15.8 µM. It also gave a TGI [8] of 29.3 µM, a GI50 [9] of 2.64 µM and a TGI [9] of over 32.8 µM. For the same molecule, the GI50 [10] was 4.58 µM and the TGI [10] was 15.9 µM.
`COc1cccc(/C=C/c2ccnc3ccccc23)c1OC` gave a TGI [1] of over 10 µM, a TGI [2] of over 10 µM and a TGI [3] of over 10 µM. The TGI [4] was over 10 µM, the TGI [5] was over 10 µM and the TGI [6] was over 10 µM. It also gave a TGI [7] of over 10 µM, a TGI [8] of over 10 µM and a TGI [9] of over 10 µM. The TGI [10] was over 10 µM.
`NC1=NC(=O)/C(=C/c2ccc3ncccc3c2)S1` showed a GI50 [1] of over 18.8 µM, a TGI [1] of over 25 µM and a GI50 [2] of over 25 µM. It also gave a TGI [2] of over 25 µM, a GI50 [3] of over 10.9 µM and a TGI [3] of over 25 µM. It also gave a GI50 [4] of over 25 µM, a TGI [4] of over 25 µM and a GI50 [5] of over 25 µM. The TGI [5] was over 25 µM, the GI50 [6] was over 25 µM and the TGI [6] was over 25 µM. For the same molecule, the GI50 [7] was over 25 µM, the TGI [7] was over 25 µM and the GI50 [8] was over 17.3 µM. It also gave a TGI [8] of over 25 µM, a GI50 [9] of over 25 µM and a TGI [9] of over 25 µM. For the same molecule, the GI50 [10] was over 25 µM and the TGI [10] was over 25 µM.
Molecule `COc1ccc(Cl)cc1Nc1nc(C(F)(F)F)ccc1C(=O)N/N=C/c1cccnc1` has a GI50 [1] of 1.99 µM, a TGI [1] of over 100 µM and a GI50 [2] of 4.07 µM. The TGI [2] was over 100 µM, the GI50 [3] was 5.63 µM and the TGI [3] was over 100 µM. For the same molecule, the GI50 [4] was 3.8 µM, the TGI [4] was over 100 µM and the GI50 [5] was 4.51 µM. The TGI [5] was over 100 µM, the GI50 [6] was 3.87 µM and the TGI [6] was 49.7 µM. The GI50 [7] was 2.28 µM, the TGI [7] was over 100 µM and the GI50 [8] was 1.23 µM. For the same molecule, the TGI [8] was over 100 µM, the GI50 [9] was 2.42 µM and the TGI [9] was over 100 µM. The GI50 [10] was 0.521 µM and the TGI [10] was over 100 µM.
`COc1ccc(-c2[nH]nc(N)c2-c2cc(OC)c3c(c2)OCO3)cc1` showed a GI50 [1] of 7.71 µM, a TGI [1] of over 100 µM and a GI50 [2] of 3 µM. The TGI [2] was over 100 µM, the GI50 [3] was 0.559 µM and the TGI [3] was 2.54 µM. The GI50 [4] was 2.33 µM, the TGI [4] was 8.48 µM and the GI50 [5] was 5.5 µM. For the same molecule, the TGI [5] was over 100 µM, the GI50 [6] was 3.25 µM and the TGI [6] was over 100 µM. The GI50 [7] was 3.8 µM, the TGI [7] was 52.3 µM and the GI50 [8] was 1.88 µM. For the same molecule, the TGI [8] was 6.75 µM, the GI50 [9] was 2.55 µM and the TGI [9] was 7.24 µM. The GI50 [10] was 12.9 µM and the TGI [10] was over 100 µM.
In the case of `O=C1C=CC(=Nc2cccc3c(N=C4C=CC(=O)O4)cccc23)O1`, the TGI [1] is reported as over 100 µM, the TGI [2] is reported as 34.3 µM and the TGI [3] is reported as over 100 µM. The TGI [4] was over 100 µM, the TGI [5] was over 100 µM and the TGI [6] was over 100 µM. For the same molecule, the TGI [7] was 58.2 µM, the TGI [8] was over 100 µM and the TGI [9] was 87.8 µM. The TGI [10] was over 100 µM.
Work on `COc1cccc(C2=C(c3cn(C)c4cc(F)ccc34)C(=O)NC2=O)c1` yielded a GI50 [1] of over 24 µM, a TGI [1] of over 25 µM and a GI50 [2] of 13.1 µM. It also gave a TGI [2] of over 25 µM, a GI50 [3] of 11.7 µM and a TGI [3] of over 25 µM. It also gave a GI50 [4] of 18.2 µM, a TGI [4] of over 25 µM and a GI50 [5] of over 25 µM. For the same molecule, the TGI [5] was over 25 µM, the GI50 [6] was 2.42 µM and the TGI [6] was over 25 µM. For the same molecule, the GI50 [7] was over 17.4 µM, the TGI [7] was over 25 µM and the GI50 [8] was 5.96 µM. The TGI [8] was over 25 µM, the GI50 [9] was 24.6 µM and the TGI [9] was over 25 µM. The GI50 [10] was over 8.37 µM and the TGI [10] was over 25 µM.
`OCc1ccc(N2CCc3cc(F)ccc3C2)cc1Cl` was tested, and the GI50 [1] was 15.1 µM, the TGI [1] was 28.7 µM and the GI50 [2] was 0.17 µM. The TGI [2] was 15.8 µM, the GI50 [3] was 13.1 µM and the TGI [3] was 27.6 µM. The GI50 [4] was 11.3 µM, the TGI [4] was 33.7 µM and the GI50 [5] was 12.9 µM. The TGI [5] was 26.2 µM, the GI50 [6] was 15.1 µM and the TGI [6] was 28.6 µM. For the same molecule, the GI50 [7] was 0.244 µM, the TGI [7] was 22.2 µM and the GI50 [8] was 0.0206 µM. For the same molecule, the TGI [8] was 0.0756 µM, the GI50 [9] was 16.2 µM and the TGI [9] was 30.7 µM. It also gave a GI50 [10] of 0.0277 µM and a TGI [10] of 0.354 µM.
`CCOC(=O)/C(C#N)=C1\SS/C(=C(/C#N)C(=O)OCC)S1` gave a GI50 [1] of 17.8 µM, a TGI [1] of 32.7 µM and a GI50 [2] of 5.4 µM. For the same molecule, the TGI [2] was 32.7 µM, the GI50 [3] was 17.1 µM and the TGI [3] was 33.1 µM. For the same molecule, the GI50 [4] was 25.8 µM, the TGI [4] was 65.3 µM and the GI50 [5] was 14.9 µM. The TGI [5] was 29.6 µM, the GI50 [6] was 22.4 µM and the TGI [6] was 57.5 µM. The GI50 [7] was 19.9 µM, the TGI [7] was 73.5 µM and the GI50 [8] was 63.9 µM. It also gave a TGI [8] of over 100 µM, a GI50 [9] of 17 µM and a TGI [9] of 35.9 µM. For the same molecule, the GI50 [10] was 15.1 µM and the TGI [10] was 29.8 µM.
`COC1=C(OC)C(=O)C(Sc2ccc3ccccc3c2)=CC1=O` showed a TGI [1] of 22.5 µM, a TGI [2] of over 61 µM and a TGI [3] of 29.8 µM. For the same molecule, the TGI [4] was 69.6 µM, the TGI [5] was 32.9 µM and the TGI [6] was 29.8 µM. It also gave a TGI [7] of 5.78 µM, a TGI [8] of 29.6 µM and a TGI [9] of 21.8 µM. For the same molecule, the TGI [10] was 48.5 µM.
